These results are taken from patent US12252524B2, “GIP/GLP1 co-agonist compounds” (Eli Lilly and Company, priority 2018, dated 2025).

Assay [1] concerns the target T1, human GIP receptor (Homo sapiens, UniProt P48546).
T1 construct: expressed in transfected cells; crude membranes
T1 sequence (P48546 22-466): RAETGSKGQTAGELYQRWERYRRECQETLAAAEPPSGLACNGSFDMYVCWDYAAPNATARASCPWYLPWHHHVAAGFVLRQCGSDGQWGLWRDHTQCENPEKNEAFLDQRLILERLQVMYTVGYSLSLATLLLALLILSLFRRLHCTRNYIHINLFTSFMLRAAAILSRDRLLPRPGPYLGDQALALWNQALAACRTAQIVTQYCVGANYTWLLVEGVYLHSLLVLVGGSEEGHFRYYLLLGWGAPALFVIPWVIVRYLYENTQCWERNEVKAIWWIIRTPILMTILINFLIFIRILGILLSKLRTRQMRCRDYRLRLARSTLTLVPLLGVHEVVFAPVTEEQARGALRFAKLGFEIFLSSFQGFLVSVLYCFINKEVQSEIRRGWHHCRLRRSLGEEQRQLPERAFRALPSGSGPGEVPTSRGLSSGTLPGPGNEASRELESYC
Nature of the assay: [125I]-GIP binding (SPA), human GIP receptor. The following applies: read-out: hGIPR Ki, nM (SEM, n).

Assay [2] has as its target T2, human Gcg receptor (Homo sapiens, UniProt P47871).
T2 construct: expressed in transfected cells; crude membranes
Description: [125I]-Glucagon binding (SPA), human Gcg receptor. The following applies: read-out: hGLcgR Ki, nM (SEM, n). The method, boiled down:
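Scintillation counts are taken after membranes and WGA beads incubate and settle for 12 hours at room temperature. Buffer is 25 mM HEPES, pH 7.4, with CaCl2, MgCl2, bacitracin and Tween-20. Ki values, from four-parameter IC50 fits, are geometric means over independent days.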

Assay [3] deals with T3, human GLP-1R (Homo sapiens, UniProt P43220). Description: [125I]-GLP-1 binding (SPA), human GLP-1 receptor. Also on record: expressed in transfected cells; crude membranes. The following applies: read-out: hGLP1R Ki, (nM) (SEM, n). The method, boiled down:
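Membranes: hypotonic lysis (50 mM Tris HCl, pH 7.5, protease inhibitors), Potter-Elvehjem homogenization, high-speed pellet (35000×g 1 h or 25000×g 30 min, 4° C.). Buffer: 25 mM HEPES pH 7.4, 2.5 mM CaCl2, 1 mM MgCl2. Four-parameter IC50 fit; Ki as geometric mean ± SEM.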

Assay [4] deals with T3, human GLP-1R. Description: GLP-1R CHO cell β-arrestin recruitment assay. The assay is classed as cell-based. The following applies: for EC50: CHO-K1 cells, PathHunter β-arrestin-2 recruitment, 0.1% casein, read-out: hGLP1R B-Arrestin2 Rel EC50 uM (SEM, n); for hGLP1R B-Arrestin2 % Top: normalized to GLP-1 maximum control. Also on record: host or cells: CHO-K1 PathHunter cells, assay-ready frozen. The method, boiled down: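 Peptide-induced β-arrestin-2 recruitment measured by enzyme-fragment complementation luminescence after 90 min at 37 °C plus 60 min detection at RT.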
Background: Arrestin recruitment assays detect the binding of arrestin to an activated receptor.

Assay [5] has as its target T4, gastric inhibitory peptide receptor (GIPR) (Homo sapiens, UniProt P48546).
T4 sequence (P48546 22-466): T1 sequence (P48546 22-466)
Nature of the assay: cAMP pharmacological functional assay in presence of casein, hGIPR. It is filed as cell-based. The note with it: HEK293 cells expressing hGIPR, 0.1% Casein, geometric mean; read-out: hGIPR cAMP Rel EC50 nM (SEM, n).

The target in assay [6] is human GLP-1 receptor (GLP-1R) (Homo sapiens, UniProt P43220). Nature of the assay: cAMP pharmacological functional assay in presence of casein, hGLP-1R. The assay is classed as cell-based. The note with it: HEK293 cells expressing hGLP-1R, 0.1% Casein, geometric mean; read-out: hGLP1R cAMP Rel EC50 nM (SEM, n).
Chain of human GLP-1 receptor (GLP-1R) (P43220 24-463): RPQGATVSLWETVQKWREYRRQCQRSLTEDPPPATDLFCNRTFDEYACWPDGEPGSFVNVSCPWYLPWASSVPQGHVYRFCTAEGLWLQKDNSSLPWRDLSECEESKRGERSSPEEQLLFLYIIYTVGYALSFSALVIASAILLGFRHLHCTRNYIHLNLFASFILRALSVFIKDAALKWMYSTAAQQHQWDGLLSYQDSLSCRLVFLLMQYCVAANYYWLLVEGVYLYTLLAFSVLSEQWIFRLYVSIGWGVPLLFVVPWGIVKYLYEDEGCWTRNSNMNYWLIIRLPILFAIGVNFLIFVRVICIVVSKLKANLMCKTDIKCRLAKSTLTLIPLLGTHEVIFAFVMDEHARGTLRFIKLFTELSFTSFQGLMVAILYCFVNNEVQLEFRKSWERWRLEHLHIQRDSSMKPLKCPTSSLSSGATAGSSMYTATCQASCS
Assay [7] deals with T3, human GLP-1R. Description: GLP-1R HEK293 cell membrane [35S]GTPγS binding assay. The assay is classed as biochemical. Set-up: expressed in transfected cells; host or cells: HEK293 cells expressing human GLP-1R; membranes. The following applies: HEK293 cell membranes expressing human GLP-1R, [35S]GTPγS binding; read-out: hGLP1R GTPgS Rel EC50 nM (SEM, n). The method, boiled down:
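Agonist-driven Gαs activation read as [35S]GTPγS ([…]) binding to receptor-expressing HEK293 membranes, 30 min at room temperature, pH 7.4. Detection by anti-Gαs immunocapture on scintillation beads; EC50 derived from four-parameter logistic concentration-response fit.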
(Binding of GTPγS marks nucleotide exchange on a G protein.)

Numbered stars: 1 amine (or outer) side, 2 acyl side, 3 side chain; on linkers, the order of the positions; unused ones are H or OH. Square brackets hold non-standard residues; d marks the D form. Side chains are listed from the residue outwards. Peptide text beside a SMILES is read from it. * marks the point of attachment. C20 diacid = O=C(O)CCCCCCCCCCCCCCCCCCC(=O)*; γGlu = O=C(O)[C@H](CCC(=O)[*:2])N[*:1]; αMeL = CC(C)C[C@](C)(N)C(=O)O; AEEA = NCCOCCOCC(=O)O; Aib = CC(C)(N)C(=O)O

The term Ki denotes a measure of affinity in units of concentration, obtained from inhibition or displacement. By EC50 is commonly meant the concentration that produces a half-maximal response.

T3 sequence (P43220 24-463): as above
T2 sequence (P47871 26-477): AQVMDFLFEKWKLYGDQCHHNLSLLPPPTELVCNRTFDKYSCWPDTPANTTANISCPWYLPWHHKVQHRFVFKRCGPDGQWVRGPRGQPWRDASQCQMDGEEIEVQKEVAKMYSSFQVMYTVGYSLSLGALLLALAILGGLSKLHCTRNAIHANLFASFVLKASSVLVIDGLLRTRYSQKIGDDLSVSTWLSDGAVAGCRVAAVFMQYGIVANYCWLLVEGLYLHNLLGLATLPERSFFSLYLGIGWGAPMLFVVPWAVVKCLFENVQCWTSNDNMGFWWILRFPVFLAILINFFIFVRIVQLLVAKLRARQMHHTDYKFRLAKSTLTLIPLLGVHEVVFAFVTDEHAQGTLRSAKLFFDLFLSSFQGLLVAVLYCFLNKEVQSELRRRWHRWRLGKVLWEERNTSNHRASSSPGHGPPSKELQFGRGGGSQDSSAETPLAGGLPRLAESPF

As for `CC[C@H](C)[C@H](NC(=O)[C@H](CC(C)C)NC(=O)[C@H](Cc1ccc(O)cc1)NC(=O)[C@H](CCC(=O)O)NC(=O)[C@@H](NC(=O)[C@H](Cc1ccccc1)NC(=O)[C@H](C)NC(=O)C(C)(C)NC(=O)[C@H](CCC(N)=O)NC(=O)[C@H](C)NC(=O)[C@H](CCCCNC(=O)COCCOCCNC(=O)COCCOCCNC(=O)CC[C@H](NC(=O)CCCCCCCCCCCCCCCCC(=O)O)C(=O)O)NC(=O)[C@H](CCCCN)NC(=O)[C@H](CC(=O)O)NC(=O)[C@H](CC(C)C)NC(=O)[C@H](CC(C)C)NC(=O)[C@@H](NC(=O)[C@H](CO)NC(=O)[C@H](Cc1ccc(O)cc1)NC(=O)[C@H](CC(=O)O)NC(=O)[C@H](CO)NC(=O)[C@@H](NC(=O)[C@H](Cc1ccccc1)NC(=O)[C@@H](NC(=O)CNC(=O)[C@H](CCC(=O)O)NC(=O)C(C)(C)NC(=O)[C@@H](N)Cc1ccc(O)cc1)[C@@H](C)O)[C@@H](C)O)[C@@H](C)CC)[C@@H](C)CC)C(=O)N[C@@H](CCC(=O)O)C(=O)NCC(=O)NCC(=O)N1CCC[C@H]1C(=O)N[C@@H](CO)C(=O)N[C@@H](CO)C(=O)NCC(=O)N[C@@H](C)C(=O)N1CCC[C@H]1C(=O)N1CCC[C@H]1C(=O)N1CCC[C@H]1C(=O)N[C@@H](CO)C(N)=O` [Example 315], the Ki worked out at 0.0677 nM in assay [1], 539 nM in assay [2] and 2.28 nM in assay [3]. Besides, the EC50 in assay [4] stood at 0.0199 µM; in assay [5], 0.0408 nM; in assay [6], 0.0651 nM; in assay [7], 0.601 nM. For the same compound, the “hGLP1R B-Arrestin2 % Top” value in assay [4] worked out at 25.4%.
Take `CC[C@H](C)[C@H](NC(=O)[C@H](CC(C)C)NC(=O)[C@H](Cc1ccc(O)cc1)NC(=O)[C@H](CCC(=O)O)NC(=O)[C@@H](NC(=O)[C@H](Cc1ccccc1)NC(=O)[C@H](C)NC(=O)C(C)(C)NC(=O)[C@H](CCC(N)=O)NC(=O)[C@H](C)NC(=O)[C@H](CCCCNC(=O)COCCOCCNC(=O)COCCOCCNC(=O)CC[C@H](NC(=O)CCCCCCCCCCCCCCCCCCC(=O)O)C(=O)O)NC(=O)[C@H](CCCCN)NC(=O)[C@H](CC(=O)O)NC(=O)[C@H](CC(C)C)NC(=O)[C@](C)(CC(C)C)NC(=O)[C@@H](NC(=O)[C@H](CO)NC(=O)[C@H](Cc1ccc(O)cc1)NC(=O)[C@H](CC(=O)O)NC(=O)[C@H](CO)NC(=O)[C@@H](NC(=O)[C@H](Cc1ccccc1)NC(=O)[C@@H](NC(=O)CNC(=O)[C@H](CCC(=O)O)NC(=O)C(C)(C)NC(=O)[C@@H](N)Cc1ccccc1)[C@@H](C)O)[C@@H](C)O)[C@@H](C)CC)[C@@H](C)CC)C(=O)N[C@@H](CCC(=O)O)C(=O)NCC(=O)NCC(=O)N1CCC[C@H]1C(=O)N[C@@H](CO)C(=O)N[C@@H](CO)C(=O)NCC(=O)N[C@@H](C)C(=O)N1CCC[C@H]1C(=O)N1CCC[C@H]1C(=O)N1CCC[C@H]1C(=O)N[C@@H](CO)C(N)=O` [Example 327] (H-F[Aib]EGTFTSDYSI[αMeL]LDKK([AEEA-AEEA-γGlu-C20 diacid])AQ[Aib]AFIEYLIEGGPSSGAPPPS-NH2; N-terminus assumed): the results for the Ki in assay [1], in assay [2] and in assay [3] were 0.0667 nM, 114 nM and 2.1 nM, respectively. In addition, the EC50 in assay [4] stood at 0.00379 µM; in assay [5], 0.0548 nM; in assay [6], 0.27 nM; in assay [7] it was 0.287 nM. In assay [4], the “hGLP1R B-Arrestin2 % Top” value was determined as 41.6%.
On to `CC[C@H](C)[C@H](NC(=O)[C@H](CC(C)C)NC(=O)[C@H](Cc1ccc(O)cc1)NC(=O)[C@H](CCC(=O)O)NC(=O)[C@@H](NC(=O)[C@H](Cc1ccccc1)NC(=O)[C@H](C)NC(=O)C(C)(C)NC(=O)[C@H](CCC(N)=O)NC(=O)[C@H](C)NC(=O)[C@H](CCCCNC(=O)COCCOCCNC(=O)COCCOCCNC(=O)CC[C@H](NC(=O)CCCCCCCCCCCCCCCCCCC(=O)O)C(=O)O)NC(=O)[C@H](CCCCN)NC(=O)[C@H](CC(=O)O)NC(=O)[C@H](CC(C)C)NC(=O)[C@H](CC(C)C)NC(=O)[C@@H](NC(=O)[C@H](CO)NC(=O)[C@H](Cc1ccc(O)cc1)NC(=O)[C@H](CC(=O)O)NC(=O)[C@H](CO)NC(=O)[C@@H](NC(=O)[C@](C)(Cc1ccccc1)NC(=O)[C@@H](NC(=O)CNC(=O)[C@H](CCC(=O)O)NC(=O)C(C)(C)NC(=O)[C@H](N)Cc1ccc(O)cc1)[C@@H](C)O)[C@@H](C)O)[C@@H](C)CC)[C@@H](C)CC)C(=O)N[C@@H](CCC(=O)O)C(=O)NCC(=O)NCC(=O)N1CCC[C@H]1C(=O)N[C@@H](CO)C(=O)N[C@@H](CO)C(=O)NCC(=O)N[C@@H](C)C(=O)N1CCC[C@H]1C(=O)N1CCC[C@H]1C(=O)N1CCC[C@H]1C(=O)N[C@@H](CO)C(N)=O` [Example 329], for which the results for the Ki in assay [1], in assay [2] and in assay [3] were 0.0439 nM, 17 nM and 3.28 nM, respectively. Also, the EC50 is 0.00473 µM in assay [4], 0.132 nM in assay [5], 0.125 nM in assay [6] and 0.343 nM in assay [7]. Moreover, the “hGLP1R B-Arrestin2 % Top” value in assay [4] worked out at 63.4%.
Take `CC[C@H](C)[C@H](NC(=O)[C@H](CC(C)C)NC(=O)[C@H](Cc1ccc(O)cc1)NC(=O)[C@H](CCC(=O)O)NC(=O)[C@@H](NC(=O)[C@H](Cc1ccccc1)NC(=O)[C@H](CCC(=O)O)NC(=O)C(C)(C)NC(=O)[C@H](CCC(N)=O)NC(=O)[C@H](C)NC(=O)[C@H](CCCCNC(=O)COCCOCCNC(=O)COCCOCCNC(=O)CC[C@H](NC(=O)CCCCCCCCCCCCCCCCCCC(=O)O)C(=O)O)NC(=O)[C@H](CCC(=O)O)NC(=O)[C@H](CC(=O)O)NC(=O)[C@H](CC(C)C)NC(=O)[C@](C)(CC(C)C)NC(=O)[C@@H](NC(=O)[C@H](CO)NC(=O)[C@H](Cc1ccc(O)cc1)NC(=O)[C@H](CC(=O)O)NC(=O)[C@H](CO)NC(=O)[C@@H](NC(=O)[C@H](Cc1ccccc1)NC(=O)[C@@H](NC(=O)CNC(=O)[C@H](CCC(=O)O)NC(=O)C(C)(C)NC(=O)[C@@H](N)Cc1ccc(O)cc1)[C@@H](C)O)[C@@H](C)O)[C@@H](C)CC)[C@@H](C)CC)C(=O)N[C@@H](C)C(=O)NCC(=O)NCC(=O)N1CCC[C@H]1C(=O)N[C@@H](CO)C(=O)N[C@@H](CO)C(=O)NCC(=O)N[C@@H](C)C(=O)N1CCC[C@H]1C(=O)N1CCC[C@H]1C(=O)N1CCC[C@H]1C(=O)N[C@@H](CO)C(N)=O` [Example 331] (H-Y[Aib]EGTFTSDYSI[αMeL]LDEK([AEEA-AEEA-γGlu-C20 diacid])AQ[Aib]EFIEYLIAGGPSSGAPPPS-NH2): the inhibitory constant (Ki) in assay [1] is 0.0851 nM; in assay [2], greater than 969 nM; in assay [3], 11.4 nM. The EC50 in assay [4] was 0.0128 µM; in assay [5] it was 0.0547 nM; in assay [6], 0.0929 nM; in assay [7], 0.375 nM. Further, the “hGLP1R B-Arrestin2 % Top” value in assay [4] is 44.3%.
